The text below walks through data of PubChem BioAssay (NCI).

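Results reflect a 48-hour exposure of cells in 96-well plates to compound at five concentrations. At the TGI there is no net growth.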 Bounds are passed on as bounds.

Test systems include DLD-1 colon; DMS 114 small cell lung; XF 498 CNS; M19-MEL melanoma; RXF-631 renal; LXFL 529 NSCLC; DMS 273 small cell lung; SN12K1 renal; P388 leukemia; P388/ADR leukemia.
Assay in all cases: NCI tumour cell line growth inhibition, 48 h

Take `CC1(C2CCC3(C)OC3C2)CO1` (stereo not drawn): the TGI with DLD-1 colon, in the experiment with DMS 114 small cell lung, with XF 498 CNS, in the experiment on M19-MEL melanoma, in the experiment on RXF-631 renal and in the experiment with LXFL 529 NSCLC was over 100 µM in each case. Also, the TGI in the experiment with DMS 273 small cell lung is over 100 µM.
In the case of `C#CCC1(C(=O)OCC)C(=O)c2ccccc2N(C)C1=O` (stereo not drawn), the TGI was over 100 µM in the experiment with DLD-1 colon; over 100 µM with DMS 114 small cell lung; 95.9 µM in the experiment on XF 498 CNS; over 100 µM in the experiment on M19-MEL melanoma; over 100 µM in the experiment with RXF-631 renal; over 100 µM with LXFL 529 NSCLC. In addition, the TGI in the experiment on DMS 273 small cell lung is over 100 µM.
Take `CC(=O)O[C@H]1CC[C@@]2(C)[C@H](CC[C@@H]3[C@@H]2CC[C@]2(C)[C@@H](c4ccc(=O)oc4)C[C@H]4O[C@]342)C1`: the TGI was 7.34 µM in the experiment with DLD-1 colon; 1.03 µM with DMS 114 small cell lung; 3.27 µM in the experiment with XF 498 CNS; 1.83 µM with SN12K1 renal; 125 µM with P388 leukemia; 7.17 µM in the experiment with M19-MEL melanoma. In addition, the results for the TGI in the experiment on P388/ADR leukemia and in the experiment on DMS 273 small cell lung were 125 µM and 1.47 µM, respectively.
For `Cc1csc(NC(=NCCN2CCOCC2)Nc2nc(C)cs2)n1`, the TGI with DLD-1 colon was over 100 µM; with DMS 114 small cell lung it was over 100 µM; with XF 498 CNS it was over 100 µM; in the experiment on SN12K1 renal it was over 100 µM; in the experiment with P388 leukemia it was over 31.6 µM; in the experiment with M19-MEL melanoma, over 100 µM. In addition, the TGI with P388/ADR leukemia and in the experiment on DMS 273 small cell lung was over 100 µM each time.
For the compound `CC(=O)CC(=O)CCC(=O)O`, the TGI in the experiment with DLD-1 colon, in the experiment on DMS 114 small cell lung, in the experiment on XF 498 CNS, in the experiment with M19-MEL melanoma and with DMS 273 small cell lung was over 100 µM each time.
For the compound `O=C1C=CC(=O)c2c(Cl)ccc(O)c21`, the TGI in the experiment with DLD-1 colon was 27.6 µM; in the experiment with DMS 114 small cell lung, 33.6 µM; in the experiment on XF 498 CNS it was 32.7 µM; in the experiment with SN12K1 renal, over 55.2 µM; in the experiment on P388 leukemia it was 3.84 µM; with M19-MEL melanoma, 30 µM. The TGI in the experiment on P388/ADR leukemia stood at 1.96 µM; in the experiment with DMS 273 small cell lung, 25.4 µM.
